Laboratory results as given in patent US6756210B2, “Linoleic acid diol and glucuronide conjugate levels as diagnostic markers of disorders of abnormal regulation of cytochrome P450 metabolism of unsaturated fatty acids” (The Regents of the University of California, priority 2001, dated 2004).
Where two headings read alike, the source gives them in different places.

What was measured:
[1] = molecular target: T1, recombinant mouse sEH (MsEH) (Mus musculus, UniProt P34914); experiment: Inhibition of recombinant mouse sEH (MsEH); type: biochemical
T1 sequence (P34914 1-554): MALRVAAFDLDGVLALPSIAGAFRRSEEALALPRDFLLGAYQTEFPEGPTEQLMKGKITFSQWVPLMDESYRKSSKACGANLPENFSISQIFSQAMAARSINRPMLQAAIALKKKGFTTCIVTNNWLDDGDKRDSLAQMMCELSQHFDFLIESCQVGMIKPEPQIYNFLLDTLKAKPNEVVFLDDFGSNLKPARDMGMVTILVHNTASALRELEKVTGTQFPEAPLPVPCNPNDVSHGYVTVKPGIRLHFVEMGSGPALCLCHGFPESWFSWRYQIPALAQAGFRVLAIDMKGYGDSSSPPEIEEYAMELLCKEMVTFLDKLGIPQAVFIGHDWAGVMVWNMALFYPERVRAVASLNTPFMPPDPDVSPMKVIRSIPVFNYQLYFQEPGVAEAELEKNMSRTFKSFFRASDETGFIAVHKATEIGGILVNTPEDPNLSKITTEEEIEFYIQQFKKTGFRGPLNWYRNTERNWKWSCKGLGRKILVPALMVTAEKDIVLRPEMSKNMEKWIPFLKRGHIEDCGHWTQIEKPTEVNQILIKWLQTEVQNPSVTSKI

Human sEH (HsEH) = molecular target: T2, Human sEH (HsEH) (Homo sapiens, UniProt P34913); experiment: Inhibition of recombinant human sEH (HsEH); type: biochemical; settings: HsEH 0.26 μM
T2 sequence (P34913 1-555): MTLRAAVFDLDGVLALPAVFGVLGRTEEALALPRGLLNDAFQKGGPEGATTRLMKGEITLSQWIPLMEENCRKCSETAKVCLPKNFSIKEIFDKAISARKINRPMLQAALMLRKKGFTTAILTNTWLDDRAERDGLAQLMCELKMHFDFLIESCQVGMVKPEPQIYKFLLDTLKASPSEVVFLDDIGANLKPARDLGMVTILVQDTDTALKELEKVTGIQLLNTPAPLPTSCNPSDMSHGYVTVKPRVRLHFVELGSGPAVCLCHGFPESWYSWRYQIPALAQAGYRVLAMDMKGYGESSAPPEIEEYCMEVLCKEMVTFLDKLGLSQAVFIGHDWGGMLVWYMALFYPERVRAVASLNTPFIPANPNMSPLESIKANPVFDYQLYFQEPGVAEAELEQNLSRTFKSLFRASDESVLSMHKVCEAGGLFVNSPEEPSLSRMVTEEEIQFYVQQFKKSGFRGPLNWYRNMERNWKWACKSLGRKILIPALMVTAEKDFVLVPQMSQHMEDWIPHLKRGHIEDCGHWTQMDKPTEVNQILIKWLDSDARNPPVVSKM

[2] = Table 1, MsEH 0.13 μM, read-out: Mouse sEH IC50
[3] = Table 2, MsEH 0.13 μM, read-out: Mouse sEH IC50

IC50 [1, 2] | IC50 (Human sEH (HsEH); Table 1) | IC50 [1, 3] | IC50 (Human sEH (HsEH); Table 2) | Structure (SMILES) | IC50 [1]
0.25 ± 0.01 µM | 2.03 ± 0.07 µM |  |  | O=C(NCC1CCCCC1)C1CCCCC1 [compound 374] | 
0.76 ± 0.02 µM | 1.39 ± 0.02 µM |  |  | O=C(Nc1ccccc1)NC1CCCCC1 [compound 21] | 
0.06 ± 0.01 µM | 0.13 ± 0.01 µM |  |  | O=C(NCC1CCCCC1)Nc1ccc2ccccc2c1 [compound 169] | 
0.45 ± 0.09 µM | 0.1 ± 0.02 µM |  |  | O=C(NC1CCCCC1)OCc1ccc(-c2ccccc2)cc1 [compound 259] | 
0.05 ± 0.1 µM | 0.1 ± 0.01 µM |  |  | O=C(NC1CCCCCC1)NC1CCCCC1 [compound 22] | 
0.52 ± 0.02 µM | 1.71 ± 0.23 µM |  |  | CCCCCCCCNC(=O)NC1CCC1 [compound 181] | 
0.05 ± 0.01 µM | 0.42 ± 0.03 µM |  |  | O=C(CC1CCCCC1)NC1CCCCC1 [compound 187] | 
0.13 ± 0.01 µM | 0.17 ± 0.01 µM |  |  | Cc1ccc(NC(=O)NC2CCCCC2)cc1 [compound 108] | 
0.8 ± 0.03 µM | 1 ± 0.2 µM |  |  | CCCNC(=O)NC1CCCCCCCCCCC1 [compound 189] | 
0.11 ± 0.01 µM | 0.24 ± 0.01 µM |  |  | CCCCCCCCCCCCCCNC(=O)NC1CCCCC1 [compound 477] | 
 |  | 0.09 ± 0.01 µM | 0.15 ± 0.02 µM | Cc1ccc(C(O)C2OC2c2ccc(-c3ccccc3)cc2)cc1 (racemic) | 
0.05 ± 0.01 µM | 0.1 ± 0.01 µM |  |  | C[C@H](NC(=O)NC1CCCCC1)c1ccccc1 [compound 544] | 
0.21 ± 0.02 µM | 0.55 ± 0.03 µM |  |  | O=C(NCCCc1ccccc1)Nc1ccccc1 [compound 430] | 
0.06 ± 0.01 µM | 0.13 ± 0.01 µM |  |  | O=C(NC1CCCCC1)OC1CCCCC1 [compound 42] | 
0.05 ± 0.01 µM | 0.1 ± 0.01 µM |  |  | O=C(NC1CCCCCCCCCCC1)NC1CCCCC1 [compound 119] | 
0.84 ± 0.1 µM | 1.05 ± 0.03 µM |  |  | CC(C)[C@@H]1CC[C@@H](C)C[C@H]1OC(=O)NC1CCCCC1 [compound 225] | 

IC50 [1, 2] | IC50 (Human sEH (HsEH); Table 1) | IC50 [1, 3] | IC50 (Human sEH (HsEH); Table 2) | Structure (SMILES) | IC50 [1]
2.3 ± 0.3 µM | 4.3 ± 0.4 µM |  |  | O=C(NCc1ccc([N+](=O)[O-])cc1)NC1CCCCC1 [compound 341] | 
0.05 ± 0.01 µM | 3.7 ± 0.3 µM |  |  | C[C@@H](NC(=O)NC1CCCCC1)c1ccccc1 [compound 545] | 
0.05 ± 0.01 µM | 0.1 ± 0.01 µM |  |  | O=C(O)CCCCCCCCCCCNC(=O)NC1CCCCC1 [compound 425] | 
1.1 ± 0.1 µM | 0.34 ± 0.02 µM |  |  | O=C(NC1CCCCC1)OCCCCC1CCCCC1 [compound 276] | 
 |  | 1.3 ± 0.3 µM | 0.3 ± 0.1 µM | O=C(c1ccccc1)C1OC1c1ccc(F)cc1 (racemic) [R=4-F-C6H4, R′=C6H5, X—Y=C═O, ±] | 
 |  | 3.5 ± 0.5 µM | 0.29 ± 0.01 µM | ON=C(c1ccccc1)C1OC1c1ccccc1 (racemic) [R=C6H5, R′=C6H5, X—Y=C═NOH, ±] | 
0.42 ± 0.01 µM | 0.55 ± 0.02 µM |  |  | O=C(NCCc1cnc[nH]1)NC1CCCCC1 [compound 461] | 
0.31 ± 0.01 µM | 0.25 ± 0.01 µM |  |  | CCCCCCNC(=O)Nc1cccc(Cl)c1 [compound 178] | 
0.2 ± 0.01 µM | 0.48 ± 0.01 µM |  |  | CC(C)c1ccc(NC(=O)NCCc2ccccc2)cc1 [compound 156] | 
0.78 ± 0.02 µM | 0.43 ± 0.02 µM |  |  | O=C(Nc1ccc(F)cc1)NC1CCCCC1 [compound 60] | 
0.73 ± 0.03 µM | 0.68 ± 0.03 µM |  |  | CCCCCCCCNC(=O)NCCC [compound 380] | 
 |  | 0.48 ± 0.05 µM | 1.36 ± 0.07 µM | COC(c1ccccc1)C1OC1c1ccc(-c2ccccc2)cc1 (racemic) [R=4-C6H5—C6H4, R′=C6H5, X—Y=CH—OCH3, ±] | 
0.05 ± 0.01 µM | 0.1 ± 0.01 µM |  |  | CC1CCC(NC(=O)NC2CCCCC2)CC1 (centres unmarked) [compound 538] | 
 |  | 0.14 ± 0.01 µM | 0.2 ± 0.01 µM | O=C(c1ccccc1)C1OC1c1ccc(-c2ccccc2)cc1 (racemic) [R=4-C6H5—C6H4, R′=C6H5, X—Y=C═O, ±] | 
0.05 ± 0.01 µM | 0.1 ± 0.01 µM |  |  | CCCCCCCCCNC(=O)NC1CCCCC1 [compound 473] | 
0.05 ± 0.01 µM | 0.18 ± 0.04 µM |  |  | CC(NC(=O)NC1CCCCC1)C1C2CC3CC(C2)CC1C3 (centres unmarked) [compound 358] | 

Structure (SMILES) | IC50 [1, 2] | IC50 (Human sEH (HsEH); Table 1) | IC50 [1, 3] | IC50 (Human sEH (HsEH); Table 2) | IC50 [1]
O=C(NC1CCCCC1)Oc1ccc2ccccc2c1 [compound 110] |  | 0.35 ± 0.01 µM |  |  | 0.21 ± 0.01 µM
O=C(Nc1ccc(Cl)cc1)Nc1ccc(Cl)c(Cl)c1 |  | 0.12 ± 0.01 µM |  |  | 0.36 ± 0.02 µM
